# Key:
# late watergrass [1] = experiment: Test Example 1: herbicidal activity, application before weed generation under submerged conditions (Table 16, symbol A); type: in vivo, late watergrass (Echinochloa oryzicola)
# Procedure, shortened: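 Emulsion formulation, water-diluted to set dose, was put onto the flooded surface (4 cm depth, alluvial soil) the same day weeds were sown and 2.5-leaf rice transplanted. After 3 weeks at 25-30 °C under glass, each species was rated 0 (≤5% kill) to 5 (≥90% kill).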
# late watergrass [2] = experiment: Test Example 2: herbicidal activity, application during weed generation under submerged conditions (Table 17, symbol A); type: in vivo, late watergrass (Echinochloa oryzicola); details: application during weed generation, submerged conditions
# Procedure, shortened: (§1)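 Effect on each weed is rated three weeks post-treatment, using the same scoring criteria as the preceding test. Plants grow from mixed-sown seed in flooded alluvial soil (4 cm water) at 25° C. to 30° C., and are treated at one to two leaves with diluted emulsion dropped onto the water.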
# oval-leafed pondweed = experiment: Test Example 2: herbicidal activity, application during weed generation under submerged conditions (Table 17, symbol C); type: in vivo, oval-leafed pondweed (Monochoria vaginalis); details: application during weed generation, submerged conditions
# Procedure, shortened: as §1
# barnyard grass [3] = experiment: Test Example 3: herbicidal effect by foliage application, Wagner pot (Table 18, symbol H); type: in vivo, barnyard grass (Echinochloa crus-galli)
# Procedure, shortened: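 Plants were sown in alluvial soil held under 0.1–0.5 cm standing water and grown 14 days in a greenhouse at 25–30 °C. An emulsifiable formulation, water-diluted to the set dose, was then sprayed onto the foliage, and effects were scored three weeks later using previously defined criteria.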
# southern crabgrass = experiment: Test Example 4: herbicidal effect by soil treatment (Table 19, symbol F); type: in vivo, southern crabgrass (Digitaria ciliaris)
# Procedure, shortened: (§2)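 Soil-surface application: an emulsion agent diluted with water to the predetermined dose is sprayed uniformly over seeds lying under roughly 1.5 cm of sterilized diluvial soil. Boxes stay in a greenhouse at 25° C. to 30° C. Three weeks later, each species is graded on previously defined criteria.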
# barnyard grass [4] = experiment: Test Example 4: herbicidal effect by soil treatment (Table 19, symbol H); type: in vivo, barnyard grass (Echinochloa crus-galli)
# Procedure, shortened: as §2
# blackgrass [5] = experiment: Test Example 4: herbicidal effect by soil treatment (Table 19, symbol J); type: in vivo, blackgrass (Alopecurus myosuroides)
# Procedure, shortened: as §2
# velvetleaf [6] = experiment: Test Example 4: herbicidal effect by soil treatment (Table 19, symbol M); type: in vivo, velvetleaf (Abutilon theophrasti)
# Procedure, shortened: as §2
# lambsquarters = experiment: Test Example 4: herbicidal effect by soil treatment (Table 19, symbol O); type: in vivo, lambsquarters (Chenopodium album)
# Procedure, shortened: as §2
# false cleavers = experiment: Test Example 4: herbicidal effect by soil treatment (Table 19, symbol Q); type: in vivo, false cleavers (Galium spurium)
# Procedure, shortened: as §2
# persian speedwell = experiment: Test Example 4: herbicidal effect by soil treatment (Table 19, symbol R); type: in vivo, Persian speedwell (Veronica persica)
# Procedure, shortened: as §2
# green foxtail = experiment: Test Example 5: herbicidal effect by foliage application, plastic box (Table 20, symbol G); type: in vivo, green foxtail (Setaria viridis); details: foliage application; for G: green foxtail, herbicidal effect grade: three weeks after application
# Procedure, shortened: (§3)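 Sow seeds spot-wise in sterilized diluvial soil; cover with ~1.5 cm soil. Grow 14 days in greenhouse, 25° C. to 30° C. Spray foliage with emulsion diluted to predetermined amount. Rate effect after 3 weeks.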
# barnyard grass [7] = experiment: Test Example 5: herbicidal effect by foliage application, plastic box (Table 20, symbol H); type: in vivo, barnyard grass (Echinochloa crus-galli); details: foliage application; for H: barnyard grass, herbicidal effect grade: three weeks after application
# Procedure, shortened: as §3
# blackgrass [8] = experiment: Test Example 5: herbicidal effect by foliage application, plastic box (Table 20, symbol J); type: in vivo, blackgrass (Alopecurus myosuroides); details: foliage application; for J: blackgrass, herbicidal effect grade: three weeks after application
# Procedure, shortened: as §3
# Italian ryegrass = experiment: Test Example 5: herbicidal effect by foliage application, plastic box (Table 20, symbol K); type: in vivo, Italian ryegrass (Lolium multiflorum); details: foliage application; for K: Italian ryegrass, herbicidal effect grade: three weeks after application
# Procedure, shortened: as §3
# velvetleaf [9] = experiment: Test Example 5: herbicidal effect by foliage application, plastic box (Table 20, symbol M); type: in vivo, velvetleaf (Abutilon theophrasti); details: foliage application; for M: velvetleaf, herbicidal effect grade: three weeks after application
# Procedure, shortened: as §3
# chickweed = experiment: Test Example 5: herbicidal effect by foliage application, plastic box (Table 20, symbol P); type: in vivo, common chickweed (Stellaria media); details: foliage application; for P: chickweed, herbicidal effect grade: three weeks after application
# Procedure, shortened: as §3
# [10] = amount of applied herbicide 320 g/ha
# [11] = amount of applied herbicide 323 g/ha
# [12] = 320 g/ha, evaluated 3 weeks after application
SMILES,"Herbicidal effect, A: late watergrass (late watergrass [1]; [10])","herbicidal effect rating, A: late watergrass (late watergrass [2]; AAH 320 g/ha)","herbicidal effect rating, C: oval-leafed pondweed (oval-leafed pondweed; AAH 320 g/ha)",herbicidal effect on barnyard grass (H) (barnyard grass [3]; 320 g/ha),"F: southern crabgrass, herbicidal effect grade (southern crabgrass; [10])","H: barnyard grass, herbicidal effect grade (barnyard grass [4]; [10])","J: blackgrass, herbicidal effect grade (blackgrass [5]; [10])","M: velvetleaf, herbicidal effect grade (velvetleaf [6]; [10])","O: lambsquarters, herbicidal effect grade (lambsquarters; [10])","Q: false cleavers, herbicidal effect grade (false cleavers; [10])","R: persian speedwell, herbicidal effect grade (persian speedwell; [10])","G: green foxtail, herbicidal effect grade (green foxtail; 320 g/ha)","H: barnyard grass, herbicidal effect grade (barnyard grass [7]; 320 g/ha)","J: blackgrass, herbicidal effect grade (blackgrass [8]; 320 g/ha)","K: Italian ryegrass, herbicidal effect grade (Italian ryegrass; 320 g/ha)","M: velvetleaf, herbicidal effect grade (velvetleaf [9]; 320 g/ha)","P: chickweed, herbicidal effect grade (chickweed; 320 g/ha)",other results
CCOc1ccc2c(-c3c(O)c(C)nn(C)c3=O)c(-c3ccccc3OC)sc2c1 [3-089],5 (Herbicidal rate of 90% or more (almost completely withered)),4 (Herbicidal rate of 70% or more and less than 90%),5 (Herbicidal rate of 90% or more (almost completely withered)),5 (Herbicidal rate of 90% or more (almost completely withered)),5 (Herbicidal rate of 90% or more (almost completely withered)),4 (Herbicidal rate of 70% or more and less than 90%),4 (Herbicidal rate of 70% or more and less than 90%),0 (Herbicidal rate of 5% or less (almost no effect)),4 (Herbicidal rate of 70% or more and less than 90%),5 (Herbicidal rate of 90% or more (almost completely withered)),5 (Herbicidal rate of 90% or more (almost completely withered)),4 (Herbicidal rate of 70% or more and less than 90%),5 (Herbicidal rate of 90% or more (almost completely withered)),5 (Herbicidal rate of 90% or more (almost completely withered)),5 (Herbicidal rate of 90% or more (almost completely withered)),5 (Herbicidal rate of 90% or more (almost completely withered)),5 (Herbicidal rate of 90% or more (almost completely withered)),
CCOc1ccc2c(-c3c(O)c(C)nn(C)c3=O)c(-c3ccccc3OCC)sc2c1 [3-093],5 (Herbicidal rate of 90% or more (almost completely withered)),3 (Herbicidal rate of 40% or more and less than 70%),5 (Herbicidal rate of 90% or more (almost completely withered)),5 (Herbicidal rate of 90% or more (almost completely withered)),5 (Herbicidal rate of 90% or more (almost completely withered)),4 (Herbicidal rate of 70% or more and less than 90%),3 (Herbicidal rate of 40% or more and less than 70%),3 (Herbicidal rate of 40% or more and less than 70%),4 (Herbicidal rate of 70% or more and less than 90%),3 (Herbicidal rate of 40% or more and less than 70%),5 (Herbicidal rate of 90% or more (almost completely withered)),5 (Herbicidal rate of 90% or more (almost completely withered)),5 (Herbicidal rate of 90% or more (almost completely withered)),4 (Herbicidal rate of 70% or more and less than 90%),5 (Herbicidal rate of 90% or more (almost completely withered)),5 (Herbicidal rate of 90% or more (almost completely withered)),5 (Herbicidal rate of 90% or more (almost completely withered)),
CCCC(=O)Oc1c(C)nn(C)c(=O)c1-c1c(-c2ccccc2OCC)sc2cc(OCC)ccc12 [3-094],,,,,,,,,,,,,,,,,,"Herbicidal effect, A: late watergrass (late watergrass [1]; [11]): 5 (Herbicidal rate of 90% or more (almost completely withered)); herbicidal effect rating, A: late watergrass (late watergrass [2]; AAH 323 g/ha): 3 (Herbicidal rate of 40% or more and less than 70%); herbicidal effect rating, C: oval-leafed pondweed (oval-leafed pondweed; AAH 323 g/ha): 4 (Herbicidal rate of 70% or more and less than 90%); herbicidal effect on barnyard grass (H) (barnyard grass [3]; 323 g/ha): 5 (Herbicidal rate of 90% or more (almost completely withered)); F: southern crabgrass, herbicidal effect grade (southern crabgrass; [11]): 3 (Herbicidal rate of 40% or more and less than 70%); H: barnyard grass, herbicidal effect grade (barnyard grass [4]; [11]): 0 (Herbicidal rate of 5% or less (almost no effect)); J: blackgrass, herbicidal effect grade (blackgrass [5]; [11]): 2 (Herbicidal rate of 20% or more and less than 40%); M: velvetleaf, herbicidal effect grade (velvetleaf [6]; [11]): 0 (Herbicidal rate of 5% or less (almost no effect)); O: lambsquarters, herbicidal effect grade (lambsquarters; [11]): 4 (Herbicidal rate of 70% or more and less than 90%); Q: false cleavers, herbicidal effect grade (false cleavers; [11]): 4 (Herbicidal rate of 70% or more and less than 90%); R: persian speedwell, herbicidal effect grade (persian speedwell; [11]): 5 (Herbicidal rate of 90% or more (almost completely withered)); G: green foxtail, herbicidal effect grade (green foxtail; 323 g/ha): 4 (Herbicidal rate of 70% or more and less than 90%); H: barnyard grass, herbicidal effect grade (barnyard grass [7]; 323 g/ha): 5 (Herbicidal rate of 90% or more (almost completely withered)); J: blackgrass, herbicidal effect grade (blackgrass [8]; 323 g/ha): 4 (Herbicidal rate of 70% or more and less than 90%); K: Italian ryegrass, herbicidal effect grade (Italian ryegrass; 323 g/ha): 3 (Herbicidal rate of 40% or more and less than 70%); M: velvetleaf, herbicidal effect grade (velvetleaf [9]; 323 g/ha): 5 (Herbicidal rate of 90% or more (almost completely withered)); P: chickweed, herbicidal effect grade (chickweed; 323 g/ha): 5 (Herbicidal rate of 90% or more (almost completely withered))"
COCCOc1ccc(-c2oc3ccc(F)cc3c2-c2c(O)c(C)nn(C)c2=O)cc1 [9-045],5 (Herbicidal rate of 90% or more (almost completely withered)),3 (Herbicidal rate of 40% or more and less than 70%),5 (Herbicidal rate of 90% or more (almost completely withered)),,5 (Herbicidal rate of 90% or more (almost completely withered)),5 (Herbicidal rate of 90% or more (almost completely withered)),5 (Herbicidal rate of 90% or more (almost completely withered)),5 (Herbicidal rate of 90% or more (almost completely withered)),5 (Herbicidal rate of 90% or more (almost completely withered)),0 (Herbicidal rate of 5% or less (almost no effect)),4 (Herbicidal rate of 70% or more and less than 90%),,,,,,,"Herbicidal effect on H (barnyard grass), foliage application (barnyard grass [3]; [10]): 5 (Herbicidal rate of 90% or more (almost completely withered)); G (green foxtail) herbicidal effect grade (green foxtail; [12]): 5 (Herbicidal rate of 90% or more (almost completely withered)); H (barnyard grass) herbicidal effect grade (barnyard grass [7]; [12]): 5 (Herbicidal rate of 90% or more (almost completely withered)); J (blackgrass) herbicidal effect grade (blackgrass [8]; [12]): 5 (Herbicidal rate of 90% or more (almost completely withered)); K (Italian ryegrass) herbicidal effect grade (Italian ryegrass; [12]): 5 (Herbicidal rate of 90% or more (almost completely withered)); M (velvetleaf) herbicidal effect grade (velvetleaf [9]; [12]): 5 (Herbicidal rate of 90% or more (almost completely withered)); P (chickweed) herbicidal effect grade (chickweed; [12]): 5 (Herbicidal rate of 90% or more (almost completely withered))"

# From US20230085307A1, “PYRIDAZINONE COMPOUND AND HERBICIDE” (NISSAN CHEMICAL CORPORATION, priority 2019, published 2023)
